Numbers after ± are expanded uncertainties.
Experiments:
[1] = 101 kPa, Liquid; for viscosity: Capillary tube (Ostwald / Ubbelohde) method; for mass density: Vibrating tube method
[2] = xn = mol fraction of the nth substance listed; conditions: 101 kPa, Liquid; for viscosity: Capillary tube (Ostwald / Ubbelohde) method; for mass density: Vibrating tube method

NCCO [2-aminoethan-1-ol]
[1]
Conditions | mass density [kg/m3] | viscosity [mPa·s]
293.15 K | 1016.9 ± 10 | 23.79 ± 4.8
303.15 K | 1009.5 ± 10 | 14.83 ± 3
313.15 K | 1001.1 ± 10 | 9.89 ± 2
323.15 K | 992.7 ± 10 | 6.872 ± 1.4
333.15 K | 984.3 ± 10 | 4.99 ± 1

NCCO [2-aminoethan-1-ol] + CCN(CC)CCO
[2], x1 = 1
Conditions | mass density [kg/m3] | viscosity [mPa·s]
293.15 K | 1016.9 ± 10 | 23.79 ± 4.8
303.15 K | 1009.5 ± 10 | 14.83 ± 3
313.15 K | 1001.1 ± 10 | 9.89 ± 2
323.15 K | 992.7 ± 10 | 6.872 ± 1.4
333.15 K | 984.3 ± 10 | 4.99 ± 1

CCN(CC)CCO [(diethylamino)ethanol]
[1]
Conditions | mass density [kg/m3] | viscosity [mPa·s]
293.15 K | 891.2 ± 10 | 4.848 ± 0.97
303.15 K | 874.4 ± 10 | 3.41 ± 0.68
313.15 K | 865.4 ± 10 | 2.466 ± 0.49
323.15 K | 856.4 ± 10 | 1.855 ± 0.37
333.15 K | 845.6 ± 10 | 1.431 ± 0.29

O [water] + CCN(CC)CCO
[2], x2 = 0
Conditions | mass density [kg/m3] | viscosity [mPa·s]
293.15 K | – | 1.004 ± 0.2
303.15 K | – | 0.813 ± 0.16
313.15 K | 992.3 ± 10 | 0.662 ± 0.13
323.15 K | – | 0.57 ± 0.11
333.15 K | 983.3 ± 10 | 0.483 ± 0.097

O [water] + NCCO
[2], x2 = 0
Conditions | mass density [kg/m3] | viscosity [mPa·s]
293.15 K | – | 1.004 ± 0.2
303.15 K | – | 0.813 ± 0.16
313.15 K | 992.3 ± 10 | 0.662 ± 0.13
323.15 K | – | 0.57 ± 0.11
333.15 K | 983.3 ± 10 | 0.483 ± 0.097

Reference: the NIST ThermoML archive (doi:10.1016/j.jct.2019.06.032)
